Assay [1] has as its target T1, High affinity nerve growth factor receptor (Homo sapiens, UniProt P04629). Nature of the assay: Inhibition of recombinant N- terminal GST-tagged human NTRK1 expressed in baculovirus infected Sf9 cells using Poly(Glu:Tyr) as substrate after 45 mins.
A short description of assay [2]: Inhibition of TRK (unknown origin). More on the design: species or system Homo sapiens.
For assay [3], the target named is T1, High affinity nerve growth factor receptor. Put plainly: Inhibition of recombinant full length human TRKA expressed in U2OS cells using Poly(Glu:Tyr) as substrate after 30 mins by scintillation counting assay.
The target in assay [4] is T2, Tyrosine-protein kinase JAK2 (Homo sapiens, UniProt O60674). Nature of the assay: Inhibition of recombinant C-terminal His6-tagged human JAK2 (808 to end residues) expressed in baculovirus infected SF21 insect cells at 3 uM using Tyr 1054/1055 biotinylated peptide as substrate after 60 mins by Alphascreen assay relative to control. (In Alpha technology, singlet oxygen from a donor bead excites a nearby acceptor bead.)

Assay [5] has as its target NTRK1/NTRK2 (Homo sapiens, UniProt P04629+Q16620). Nature of the assay: Inhibition of TRKA/TRKB (unknown origin). It counts as protein assay.
Assay [6] concerns OVCAR-3. Nature of the assay: Cytotoxicity against human OVCAR3 cells after 24 to 72 hrs by MTT assay. It counts as functional, cell-based. For orientation: Tetrazolium assays rely on reduction of a dye to a coloured formazan, in cell work by metabolically active cells.
Assay [7] deals with SK-OV-3. Nature of the assay: Cytotoxicity against human SKOV3 cells after 24 to 72 hrs by MTT assay. The format is functional, cell-based.
In assay [8] the target is T1, High affinity nerve growth factor receptor. Nature of the assay: Inhibition of NTRK1 in human KM12 cells. The format is cell-based.
For assay [9] the target is unchanged. Put plainly: Inhibition of recombinant His-tagged human TRKA cytoplasmic domain (441 to 796 residues) expressed in baculovirus expression system using biotin labelled TK peptide preincubated for 20 mins followed by substrate addition by HTRF assay. In general terms: Time-resolved FRET reads energy transfer from a long-lived donor to a nearby acceptor.
Assay [10] has the same target. Put plainly: Inhibition TRKA (unknown origin) by cell based assay.
Assay [11] has the same target. Put plainly: Inhibition of TRKA (unknown origin) using poly GT as substrate preincubated for 30 mins followed by substrate addition measured after 30 mins by TR-FRET Assay.
The target of assay [12] is T3, BDNF/NT-3 growth factors receptor (Homo sapiens, UniProt Q16620). Put plainly: Inhibition of N- terminal GST-tagged human TRKB cytoplasmic domain (456 to 822 end residues) expressed in baculovirus expression system using TK peptide as substrate after 60 mins by HTRF assay.
Assay [13] deals with T1, High affinity nerve growth factor receptor. Nature of the assay: Inhibition of N- terminal GST-tagged human TRKA cytoplasmic domain (436 to 790 end residues) using TK peptide as substrate after 60 mins by HTRF assay.
In assay [14] the target is T2, Tyrosine-protein kinase JAK2. Put plainly: Inhibition of N-terminal His-tagged human JAK2 catalytic domain (826 to 1132 end residues) expressed in baculovirus expression system using TK peptide as substrate after 120 mins by HTRF assay.
Assay [15] concerns the target NT-3 growth factor receptor (Homo sapiens, UniProt Q16288). Nature of the assay: Inhibition of N- terminal GST-tagged human TRKC catalytic domain (456 to 825 end residues) expressed in baculovirus expression system using TK peptide as substrate after 60 mins by HTRF assay.
Assay [16] deals with T1, High affinity nerve growth factor receptor. Nature of the assay: Inhibition of human TRKA expressed in human AD293 cells assessed as reduction in TrkA phosphorylation at Tyr490 residues preincubated for 20 mins followed by NGF-stimulation measure after 5 mins by ELISA. The format is cell-based.
Assay [17] has as its target T3, BDNF/NT-3 growth factors receptor. Nature of the assay: Inhibition of TRKB (unknown origin).
Assay [18] addresses Tyrosine-protein kinase BTK (Homo sapiens, UniProt Q06187). Nature of the assay: Inhibition of BTK (unknown origin).
Assay [19] addresses T1, High affinity nerve growth factor receptor. Put plainly: Inhibition TRKA (unknown origin).

One may read the IC50 as the concentration that inhibits the measured activity by half. As usually defined, the inhibition is how much of the control response was suppressed.

T3 sequence (Q16620 whole entry, the tested form may be a part): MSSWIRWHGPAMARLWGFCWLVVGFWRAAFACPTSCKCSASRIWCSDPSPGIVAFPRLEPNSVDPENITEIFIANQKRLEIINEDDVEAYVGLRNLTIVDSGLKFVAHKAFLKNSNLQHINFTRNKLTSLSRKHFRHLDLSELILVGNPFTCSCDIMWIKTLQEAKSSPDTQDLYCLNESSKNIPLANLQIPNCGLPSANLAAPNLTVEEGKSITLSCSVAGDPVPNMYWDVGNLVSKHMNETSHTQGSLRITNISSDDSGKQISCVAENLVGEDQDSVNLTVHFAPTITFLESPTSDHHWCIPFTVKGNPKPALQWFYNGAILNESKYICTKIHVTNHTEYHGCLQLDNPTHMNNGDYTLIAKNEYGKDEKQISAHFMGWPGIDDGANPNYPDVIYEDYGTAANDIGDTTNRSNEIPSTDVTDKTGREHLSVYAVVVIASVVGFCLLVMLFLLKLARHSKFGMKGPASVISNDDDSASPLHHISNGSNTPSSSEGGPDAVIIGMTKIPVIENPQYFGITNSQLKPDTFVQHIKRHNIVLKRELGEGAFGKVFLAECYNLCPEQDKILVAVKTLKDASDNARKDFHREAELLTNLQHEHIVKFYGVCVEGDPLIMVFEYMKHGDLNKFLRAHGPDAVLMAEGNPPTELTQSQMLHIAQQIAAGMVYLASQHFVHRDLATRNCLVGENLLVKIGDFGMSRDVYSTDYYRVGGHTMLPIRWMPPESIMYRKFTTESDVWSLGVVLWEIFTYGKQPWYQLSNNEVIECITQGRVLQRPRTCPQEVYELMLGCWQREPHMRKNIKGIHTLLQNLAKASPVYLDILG
T2 sequence (O60674 whole entry): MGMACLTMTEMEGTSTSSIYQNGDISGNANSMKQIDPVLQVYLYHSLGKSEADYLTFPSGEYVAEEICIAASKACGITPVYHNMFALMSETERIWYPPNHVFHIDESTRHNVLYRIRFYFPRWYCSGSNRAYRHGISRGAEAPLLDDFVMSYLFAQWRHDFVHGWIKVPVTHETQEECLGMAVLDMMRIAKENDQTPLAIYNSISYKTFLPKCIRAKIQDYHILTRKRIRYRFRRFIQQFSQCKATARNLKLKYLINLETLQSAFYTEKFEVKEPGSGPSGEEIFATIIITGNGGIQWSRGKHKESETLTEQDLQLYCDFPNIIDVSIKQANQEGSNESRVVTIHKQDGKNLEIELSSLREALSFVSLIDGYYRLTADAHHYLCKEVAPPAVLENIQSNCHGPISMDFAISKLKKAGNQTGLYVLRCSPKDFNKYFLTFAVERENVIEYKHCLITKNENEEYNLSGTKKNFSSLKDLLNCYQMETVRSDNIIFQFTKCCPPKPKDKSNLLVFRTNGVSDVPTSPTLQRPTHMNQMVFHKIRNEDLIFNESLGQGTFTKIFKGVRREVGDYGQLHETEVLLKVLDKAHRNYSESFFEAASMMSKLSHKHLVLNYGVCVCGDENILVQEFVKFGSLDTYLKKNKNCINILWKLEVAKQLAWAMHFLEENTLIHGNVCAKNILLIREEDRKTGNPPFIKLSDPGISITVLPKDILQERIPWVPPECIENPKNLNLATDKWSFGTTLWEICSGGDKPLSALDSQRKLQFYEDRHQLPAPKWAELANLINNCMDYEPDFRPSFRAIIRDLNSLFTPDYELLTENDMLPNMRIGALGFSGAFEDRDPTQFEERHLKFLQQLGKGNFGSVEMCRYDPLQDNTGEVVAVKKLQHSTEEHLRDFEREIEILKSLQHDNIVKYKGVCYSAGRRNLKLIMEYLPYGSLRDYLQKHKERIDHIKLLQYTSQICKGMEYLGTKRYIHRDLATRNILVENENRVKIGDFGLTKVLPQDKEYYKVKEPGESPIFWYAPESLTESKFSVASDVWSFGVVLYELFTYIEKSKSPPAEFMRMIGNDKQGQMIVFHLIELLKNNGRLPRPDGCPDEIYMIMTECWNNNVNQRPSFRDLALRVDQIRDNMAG
T1 sequence (P04629 whole entry): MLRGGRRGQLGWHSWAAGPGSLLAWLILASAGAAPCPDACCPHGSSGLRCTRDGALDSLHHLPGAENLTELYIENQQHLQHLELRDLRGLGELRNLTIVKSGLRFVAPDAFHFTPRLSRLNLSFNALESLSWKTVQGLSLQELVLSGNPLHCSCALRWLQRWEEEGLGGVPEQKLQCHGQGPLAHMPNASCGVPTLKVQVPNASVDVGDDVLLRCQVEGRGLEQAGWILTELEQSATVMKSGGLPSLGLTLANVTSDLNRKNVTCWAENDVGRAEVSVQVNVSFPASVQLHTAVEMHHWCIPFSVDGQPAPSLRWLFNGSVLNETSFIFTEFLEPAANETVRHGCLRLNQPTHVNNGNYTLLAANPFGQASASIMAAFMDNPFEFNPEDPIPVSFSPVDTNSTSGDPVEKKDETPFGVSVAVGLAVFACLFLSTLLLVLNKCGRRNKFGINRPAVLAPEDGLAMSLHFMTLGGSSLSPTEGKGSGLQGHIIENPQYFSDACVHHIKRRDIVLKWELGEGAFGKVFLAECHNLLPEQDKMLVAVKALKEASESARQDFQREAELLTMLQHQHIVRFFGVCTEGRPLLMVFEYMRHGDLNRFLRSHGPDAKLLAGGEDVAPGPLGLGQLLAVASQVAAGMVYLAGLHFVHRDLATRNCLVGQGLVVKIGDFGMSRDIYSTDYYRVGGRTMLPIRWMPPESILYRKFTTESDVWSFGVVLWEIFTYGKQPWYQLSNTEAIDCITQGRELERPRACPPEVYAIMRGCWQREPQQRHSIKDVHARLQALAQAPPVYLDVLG
Chain of Tyrosine-protein kinase BTK (Q06187 whole entry): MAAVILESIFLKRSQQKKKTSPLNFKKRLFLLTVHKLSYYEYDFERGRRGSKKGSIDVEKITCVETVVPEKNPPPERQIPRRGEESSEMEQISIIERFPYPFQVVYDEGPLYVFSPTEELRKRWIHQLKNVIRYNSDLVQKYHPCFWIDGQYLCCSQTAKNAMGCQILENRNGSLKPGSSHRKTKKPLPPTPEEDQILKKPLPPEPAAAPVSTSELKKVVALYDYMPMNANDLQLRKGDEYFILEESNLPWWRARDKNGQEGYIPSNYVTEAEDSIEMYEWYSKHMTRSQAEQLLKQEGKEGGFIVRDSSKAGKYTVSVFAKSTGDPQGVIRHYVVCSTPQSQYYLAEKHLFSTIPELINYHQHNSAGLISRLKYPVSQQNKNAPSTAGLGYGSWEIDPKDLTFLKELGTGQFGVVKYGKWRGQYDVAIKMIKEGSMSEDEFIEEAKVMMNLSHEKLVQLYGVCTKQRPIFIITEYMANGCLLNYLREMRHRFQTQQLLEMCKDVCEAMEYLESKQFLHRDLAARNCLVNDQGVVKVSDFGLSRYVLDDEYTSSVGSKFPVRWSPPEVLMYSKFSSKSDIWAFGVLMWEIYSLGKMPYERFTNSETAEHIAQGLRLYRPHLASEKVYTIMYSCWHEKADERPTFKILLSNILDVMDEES
Chain of NT-3 growth factor receptor (Q16288 whole entry, the tested form may be a part): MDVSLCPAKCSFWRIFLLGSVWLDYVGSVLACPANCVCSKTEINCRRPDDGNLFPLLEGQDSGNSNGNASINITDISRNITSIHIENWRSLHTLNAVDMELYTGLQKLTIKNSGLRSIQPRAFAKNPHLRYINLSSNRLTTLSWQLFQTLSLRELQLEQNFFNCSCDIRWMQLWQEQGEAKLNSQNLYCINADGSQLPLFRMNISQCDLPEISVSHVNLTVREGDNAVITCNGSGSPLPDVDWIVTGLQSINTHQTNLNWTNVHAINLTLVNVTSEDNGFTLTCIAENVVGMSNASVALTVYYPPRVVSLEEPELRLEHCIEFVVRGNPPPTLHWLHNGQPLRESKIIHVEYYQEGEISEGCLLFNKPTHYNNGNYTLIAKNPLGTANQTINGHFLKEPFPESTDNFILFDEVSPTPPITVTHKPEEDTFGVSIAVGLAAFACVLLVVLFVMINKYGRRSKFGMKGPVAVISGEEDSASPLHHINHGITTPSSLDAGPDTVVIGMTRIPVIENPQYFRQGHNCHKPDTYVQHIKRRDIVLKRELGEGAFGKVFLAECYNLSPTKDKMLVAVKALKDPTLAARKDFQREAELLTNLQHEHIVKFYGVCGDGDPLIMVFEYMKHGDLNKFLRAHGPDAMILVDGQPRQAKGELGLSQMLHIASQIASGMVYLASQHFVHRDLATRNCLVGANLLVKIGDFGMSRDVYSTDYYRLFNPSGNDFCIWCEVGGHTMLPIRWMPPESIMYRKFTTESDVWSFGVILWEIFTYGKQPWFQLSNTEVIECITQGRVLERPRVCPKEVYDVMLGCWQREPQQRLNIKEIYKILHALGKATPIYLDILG

As for `CC(C)c1nnc(-c2cnn3ccc(N4CCCC4c4cc(F)ccc4F)nc23)o1` (centres undefined), the IC50 in [1] is below 10 nM. Molecule `C[C@H](Nc1ncc(F)c(Nc2cc(C3CC3)[nH]n2)n1)c1ccc(F)cn1` returned an IC50 in assay [2] of 10 nM. Take `O=C(Cn1c2c(c3cc(F)ccc31)CCn1nccc1-2)NCc1ccc(-c2c(F)cccc2F)cn1`: in [3], the IC50 is 0.9 to 1 nM.

In assay [2], `C[C@H](Nc1nccc(Nc2cc(C3CC3)[nH]n2)n1)c1ccc(F)cc1` returned an IC50 of 67 nM. Turning to `Cc1cc(Nc2cncc(N[C@@H](C)c3ccc(F)cc3)n2)n[nH]1`, the inhibition in assay [4] was 100%. `CC(C)c1cc(C(=O)c2cccc(NC(=O)Nc3ccc4ccccc4c3)c2)c2c(N)ncnn12`: the IC50 in assay [5] is reported as below 1 nM. Molecule `N#Cc1cc([N+](=O)[O-])c(Nc2cc(C3CC3)[nH]n2)cc1N[C@@H](CO)c1ccc(F)cc1` showed an IC50 in [2] of 859 nM. In assay [2], `C[C@H](Nc1ncc(Br)c(Nc2cc(C3CC3)[nH]n2)n1)c1ccc(F)cn1` displayed an IC50 of 5 nM. As to `O=C(Nc1c(-c2ccccc2)nc2ccccn12)NC1c2ccccc2-c2ccccc21`, the IC50 in assay [3] fell in the range of 28 to 30 nM. As to `C[C@H](Nc1ccc([N+](=O)[O-])c(Nc2cc(C3CC3)[nH]n2)n1)c1ccc(F)cc1`, inhibition in assay [2] was half-maximal at 63 nM (IC50). Take H-TGLDSDGLYQN-OH: the IC50 in assay [6] and in assay [7] was 200 nM each time.

In assay [8], `N#Cc1cnn2ccc(N3C[C@@H](F)C[C@@H]3c3cc(F)ccc3F)nc12` yielded a concentration for half-maximal inhibition (IC50) below 10 nM. Turning to `Nc1cc(CNC(=O)c2cc(NC(=O)c3cc(-c4cccc(F)n4)c(F)cc3Cl)n(-c3ccccc3)n2)ccn1`, the half-maximal inhibitory concentration (IC50) in assay [9] stood at 1.04 nM.

As for `CS(=N)(=O)c1ccc(-c2ccc(CNC(=O)Cn3c4c(c5cc(F)ccc53)CCn3nccc3-4)nc2)cc1` (centres undefined), in assay [3], the IC50 was 0.7 to 1 nM. Molecule `CN(C)CCCc1cc(C(=O)c2cccc(NC(=O)Nc3ccc(Cl)cc3Cl)c2)c2c(N)ncnn12` displayed an IC50 in [5] below 1 nM.

On to `COCCN1C[C@@H](NC(=O)Nc2c(C)c(C(C)(C)C)nn2-c2ccccc2)[C@H](c2ccc(F)c(F)c2)C1`, for which the results for the IC50 in assay [3] and in assay [10] were 1.5 nM and 1.3 nM, respectively. In the case of `C[C@H](Nc1cc(Nc2cc(C3CC3)[nH]n2)c([N+](=O)[O-])cc1F)c1ccc(F)cc1`, the IC50 in assay [2] was determined as 426 nM.

In the case of `C[C@H](Nc1ncc(Cl)c(Nc2cc(C3CC3)[nH]n2)n1)c1ccc(F)cn1`, the IC50 in assay [2] came to 8 nM. On to `COc1ccc2nc(N[C@@H](CO)c3ccc(F)cc3)nc(Nc3cc(C4CC4)[nH]n3)c2c1`, for which, in assay [2], 87 nM corresponded to half-maximal inhibition (IC50). In turn, `CS(=O)(=O)Nc1cccc(-c2c[nH]c3ncc(-c4cncc(NS(=O)(=O)c5ccccc5)c4)cc23)c1` came in with an IC50 in assay [2] above 1000 nM. With `O=C(Nc1ccc(F)cc1)c1cnc2ccc(N3CCCC3c3cc(F)ccc3F)cn12` (centres undefined), the IC50 in assay [11] was below 50 nM. For the molecule `Nc1nn2cc(N3CCC[C@@H]3c3cc(F)ccc3F)cnc2c1C(=O)Nc1ccc(F)cc1`, the IC50 in [12] is below 10 nM; in [13], below 1 nM; in assay [14], above 500 nM; in assay [15] it was below 10 nM. On to `COCCN1C[C@@H](NC(=O)Nc2cc3c(nc2-c2ccccc2)CCCC3)[C@H](c2ccccc2)C1`, for which, in [16], the concentration for half-maximal inhibition (IC50) is below 100 nM. Turning to `O=C(c1cnc2ccc(N3CCCC3c3cc(F)ccc3F)cn12)N1CC(O)C1` (centres undefined), the IC50 in [11] is below 50 nM. `O=C(c1cnc2ccc(N3CCCC3c3cc(F)ccc3F)cn12)N1CC[C@H](O)C1` (some centres undefined): in assay [11], the IC50 is below 50 nM.

In the case of `NC(=O)c1c(N)nn2cc(N3CCC[C@@H]3c3cc(F)ccc3F)cnc12`, the IC50 was below 10 nM in assay [12], below 1 nM in assay [13], above 2000 nM in assay [14] and below 10 nM in assay [15]. In the case of `Nc1cc(NS(=O)(=O)c2cccc(C(F)(F)F)c2)cc(-c2ccc3c(-c4ccncc4)c[nH]c3n2)c1`, in assay [2], the concentration for half-maximal inhibition (IC50) is above 1000 nM. With H-NTDLLNSNDNG-OH, the IC50 in assay [6] and in assay [7] was 200 nM throughout.

Regarding `CC(C)N1Cc2cc(c(F)cc2F)OCCCNC(=O)c2cnn3ccc1nc23`, the IC50 in assay [17] turned out to be 5000 nM; in assay [3], 0.2 nM; in assay [18], 9.67 nM. Regarding `CC(C)c1nnc(-c2cnn3ccc(N4CCCC4c4cc(F)ccc4F)nc23)s1` (centres undefined), in [1], the IC50 was below 10 nM. Regarding `COCCN1C[C@@H](NC(=O)Nc2cc3cc(OC)c(OC)cc3nc2-c2ccccc2)[C@H](c2ccccc2)C1`, the IC50 in [16] was below 100 nM. Regarding `Cn1ccc(-c2cc(C(=O)Nc3c(-c4ccccc4)nc4ccc(CO)cn34)ccc2C(F)(F)F)n1`, the IC50 in [3] was 1 nM. Regarding `COCCN1C[C@@H](NC(=O)Nc2c(C)c(-c3ccnc(C)n3)nn2-c2ccccc2)[C@H](c2cccc(F)c2)C1`, the results for the IC50 in assay [3] and in assay [10] were 1.1 nM and 1.9 nM, respectively. In the case of `CC(C)c1cc(C(=O)c2cccc(NC(=O)Nc3ccccc3)c2)c2c(N)ncnn12`, in [5], the IC50 is reported as below 1 nM. In the case of `N#Cc1cc(F)cc([C@H]2C[C@H](F)CN2c2ccn3ncc(C#N)c3n2)c1`, in [8], the IC50 was below 10 nM. `CC(C)c1cc(C(=O)c2cccc(NC(=O)Nc3ccc(OCc4ccccc4)cc3)c2)c2c(N)ncnn12`: the IC50 in [5] is recorded as below 1 nM. Take `CC(C)(C)c1nnc(-c2cnn3ccc(N4CCCC4c4cc(F)ccc4F)nc23)o1` (centres undefined): the IC50 in [1] was below 10 nM. As to `Nc1cc(CNC(=O)c2cc(NC(=O)c3cc(-c4cccc(F)n4)c(Cl)cc3Cl)n(-c3ccccc3)n2)ccn1`, the IC50 in assay [9] is 1.02 nM.

With `C[C@H](Nc1nc(Nc2cc(C3CC3)[nH]n2)c(F)cc1CNC(=O)C1CCC(=O)N1)c1ccc(F)cc1` (some centres undefined), in [2], 611 nM corresponded to half-maximal inhibition (IC50). Regarding `CC(C)N1Cc2cc(cc(F)c2Cl)O[C@@H](C)CNC(=O)c2cnn3ccc1nc23`, the IC50 is 1500 nM in [17], 0.2 nM in assay [3] and 0.536 nM in [18]. In turn, `C[C@H](Nc1cc(NCCO)c([N+](=O)[O-])c(Nc2cc(C3CC3)[nH]n2)c1)c1ccc(F)cc1` returned an IC50 in assay [2] of 1240 nM. For `COCCN1C[C@@H](NC(=O)Nc2c(C)c(-c3cnn(C)c3)nn2-c2ccccc2)[C@H](c2ccccc2)C1`, the IC50 is 1.7 nM in assay [3] and 6.1 nM in assay [10]. Regarding `COc1ncc(F)cc1[C@H]1C[C@H](F)CN1c1ccn2ncc(C#N)c2n1`, the IC50 in [8] was below 10 nM. Turning to `CC(C)c1cc(C(=O)c2cccc(NC(=O)Nc3ccc(Cl)cc3Cl)c2)c2c(N)ncnn12`, the IC50 in [19] and in [5] was below 1 nM throughout. For `CS(=N)(=O)c1ccc(-c2ccc(CNC(=O)Cn3c4c(c5ccccc53)CCn3nccc3-4)nc2)cc1` (centres undefined), the IC50 in assay [3] lay within 0.5 to 1 nM.

Consider `Cc1nc(-c2ccccc2)c(NC(=O)Nc2cnc3ccccn23)s1`, for which the IC50 in assay [3] came to 48 nM. As for `CC(C)(O)c1ccc2nc(-c3ccccc3)c(NC(=O)c3cc(-c4ncccn4)c(C(F)(F)F)cc3F)n2c1`, in assay [3], the IC50 is 0.89 nM. For `C[C@H](Nc1nc(Nc2cc(C3CC3)[nH]n2)c(Cl)cc1Cl)c1ccc(F)cc1`, the IC50 in assay [2] was 109 nM.

In [2], `OCC[C@H](Nc1nc(Nc2cc(C3CC3)[nH]n2)c2sccc2n1)c1ccc(F)cc1` yielded an IC50 of 59 nM. `C[C@@H]1CCc2ncc(F)cc2[C@H]2CCCN2c2ccn3ncc(c3n2)C(=O)N1` [SELITRECTINIB] registered an IC50 in assay [2] above 1000 nM. In the case of `COCCN1C[C@@H](NC(=O)Nc2cc3ccccc3nc2-c2ccccc2)[C@H](c2ccccc2)C1`, the IC50 in assay [16] is below 100 nM. Turning to `O=C(Nc1c(-c2ccccc2)nc2sccn12)NC1c2ccccc2-c2ccccc21`, the IC50 in assay [3] lay within 30 to 35 nM.

As for `O=C(Nc1cccnc1-c1ccccc1)NC1c2ccccc2-c2ccccc21`, the half-inhibitory concentration (IC50) in [3] is 27 to 30 nM.

These data come from ChEMBL document CHEMBL4346723, “Targeting tropomyosin receptor kinase for cancer therapy” (Eur J Med Chem, 2019).
